{"source": "paper PMC11149917", "about": "“Translational and Therapeutic Evaluation of RAS-GTP Inhibition by RMC-6236 in RAS-Driven Cancers” (Cancer Discovery, 2024)", "test_system": "PRISM panel of 845 cancer cell lines", "assay": "PRISM assay", "format": "cell-based, human", "experimental": "The PRISM cell set comprised 845 cell lines representing more than 45 lineages (see Supplementary Table S1 for cell line information), which largely overlapped with the Cancer Cell Line Encyclopedia; https://portals.broadinstitute.org/ccle). Cell lines were grown in RPMI without phenol red and supplemented with 10% or 20% FBS for adherent and suspended lines, respectively. Parental cell lines were stably infected with a unique 24-nucleotide DNA barcode via lentiviral transduction and blasticidin selection. After selection, barcoded cell lines were expanded and subjected to quality control (Mycoplasma contamination test, an SNP test for confirming cell line identity, and barcode ID confirmation). Approved cell lines were then pooled (20–25 cell lines per pool) based on doubling time similarity and frozen in assay-ready vials.\nRMC-6236 was added to 384-well plates at 8-point concentration with 3-fold dilutions in triplicate. These assay-ready plates were then seeded with the thawed cell line pools. Adherent cell pools were plated at 1,250 cells per well, whereas suspension and mixed adherent/suspension pools were plated at 2,000 cells per well. Treated cells were incubated for 5 days, and then lysed. Lysate plates were collapsed together prior to barcode amplification and detection.\nEach cell line's unique barcode is located in the 3′UTR of the blasticidin-resistance gene and therefore is expressed as mRNA. Total mRNA was captured using magnetic particles that recognize polyA sequences. Captured mRNA was reverse-transcribed into cDNA and then the sequence containing the unique PRISM barcode was amplified using PCR. Finally, Luminex beads that recognize the specific barcode sequences in the cell set were hybridized to the PCR products and detected using a Luminex scanner which reports the signal as a median fluorescent intensity (MFI).\n• Each detection well contained 10 control barcodes in increasing abundances as spike-in controls. For each plate, we first create a reference profile by calculating the median of the log2(MFI) values across negative control wells for each of these spiked-in barcodes. • For each well, a monotonic smooth p-spline was fitted to map the spike-in control levels to the reference profile. Next, we transform the log2(MFI) for each cell barcode using the fitted spline to allow well-to-well comparisons by correcting for amplification and detection artifacts. • Next, the separability between negative and positive control treatments was assessed. In particular, we calculated the error rate of the optimum simple threshold classifier between the control samples for each cell line and plate combination. The error rate is a measure of the overlap of the two control sets and was defined as error = (FP + FN)/n, where FP is false positives, FN is false negatives, and n is the total number of controls. A threshold was set between the distributions of positive and negative control log2(MFI) values (with everything below the threshold said to be positive and above said to be negative) such that this value is minimized. Additionally, we also calculated the dynamic range of each cell line. […] Additionally, any cell line that had less than 2 passing replicates was also omitted for the sake of reproducibility. Finally, we computed viability by normalizing with respect to the median negative control for each plate.\nFor every gene with nonsilent mutations in at least four cell lines, we compared the AUC values between cells with and without those mutations using a t test. This analysis was carried out for (i) the full data set; (ii) excluding cell lines with nonsilent KRAS mutations; and (iii) excluding cell lines that have either KRAS or NRAS nonsilent mutations.", "data": [{"smiles": "CCn1c(-c2cc(N3CCN(C)CC3)cnc2[C@H](C)OC)c2c3cc(ccc31)-c1csc(n1)C[C@H](NC(=O)[C@H]1C[C@@H]1C)C(=O)N1CCC[C@H](N1)C(=O)OCC(C)(C)C2", "note": "[RMC-6236]", "values": [{"measurement": "RMC-6236: RevMed PRISM: AUC", "setting": "LS_AUTONOMIC_GANGLIA", "result": 1}, {"measurement": "RMC-6236: RevMed PRISM: AUC", "setting": "MCAS_OVARY, KRAS p.G12D", "result": 0.5822}, {"measurement": "RMC-6236: RevMed PRISM: AUC", "setting": "MDAMB361_BREAST", "result": 0.8463}, {"measurement": "RMC-6236: RevMed PRISM: AUC", "setting": "MG63_BONE", "result": 0.9083}, {"measurement": "RMC-6236: RevMed PRISM: AUC", "setting": "MIAPACA2_PANCREAS, KRAS p.G12C", "result": 0.3158}, {"measurement": "RMC-6236: RevMed PRISM: AUC", "setting": "MKN1_STOMACH", "result": 0.8375}, {"measurement": "RMC-6236: RevMed PRISM: AUC", "setting": "MMNK1_BILIARY_TRACT", "result": 1}, {"measurement": "RMC-6236: RevMed PRISM: AUC", "setting": "MOLP2_HAEMATOPOIETIC_AND_LYMPHOID_TISSUE", "result": 0.8941}, {"measurement": "RMC-6236: RevMed PRISM: AUC", "setting": "NCIH1373_LUNG, KRAS p.G12C", "result": 0.5175}, {"measurement": "RMC-6236: RevMed PRISM: AUC", "setting": "NCIH1623_LUNG", "result": 0.9336}, {"measurement": "RMC-6236: RevMed PRISM: AUC", "setting": "NCIH1792_LUNG, KRAS p.G12C", "result": 0.4194}, {"measurement": "RMC-6236: RevMed PRISM: AUC", "setting": "NCIH1944_LUNG, KRAS p.G13D", "result": 0.6749}, {"measurement": "RMC-6236: RevMed PRISM: AUC", "setting": "NCIH2110_LUNG", "result": 0.7265}, {"measurement": "RMC-6236: RevMed PRISM: AUC", "setting": "NCIH2170_LUNG", "result": 0.8266}, {"measurement": "RMC-6236: RevMed PRISM: AUC", "setting": "NOZ_LIVER, KRAS p.G12V", "result": 0.4128}, {"measurement": "RMC-6236: RevMed PRISM: AUC", "setting": "NP3_CENTRAL_NERVOUS_SYSTEM", "result": 0.8074}, {"measurement": "RMC-6236: RevMed PRISM: AUC", "setting": "NUGC4_STOMACH", "result": 0.5513}, {"measurement": "RMC-6236: RevMed PRISM: AUC", "setting": "OE21_OESOPHAGUS", "result": 0.7641}, {"measurement": "RMC-6236: RevMed PRISM: AUC", "setting": "OSRC2_KIDNEY", "result": 0.9503}, {"measurement": "RMC-6236: RevMed PRISM: AUC", "setting": "OVKATE_OVARY", "result": 0.9428}, {"measurement": "RMC-6236: RevMed PRISM: AUC", "setting": "PL21_HAEMATOPOIETIC_AND_LYMPHOID_TISSUE, KRAS p.A146V", "result": 0.4905}, {"measurement": "RMC-6236: RevMed PRISM: AUC", "setting": "PSN1_PANCREAS, KRAS p.G12R", "result": 0.3382}, {"measurement": "RMC-6236: RevMed PRISM: AUC", "setting": "RDES_BONE", "result": 0.8941}, {"measurement": "RMC-6236: RevMed PRISM: AUC", "setting": "RERFLCKJ_LUNG", "result": 0.8815}, {"measurement": "RMC-6236: RevMed PRISM: AUC", "setting": "RKN_SOFT_TISSUE, KRAS p.G12V", "result": 0.3219}, {"measurement": "RMC-6236: RevMed PRISM: AUC", "setting": "RL_HAEMATOPOIETIC_AND_LYMPHOID_TISSUE", "result": 0.8075}, {"measurement": "RMC-6236: RevMed PRISM: AUC", "setting": "SKES1_BONE", "result": 0.8643}, {"measurement": "RMC-6236: RevMed PRISM: AUC", "setting": "SKGT2_STOMACH", "result": 0.6916}, {"measurement": "RMC-6236: RevMed PRISM: AUC", "setting": "SKHEP1_LIVER", "result": 0.8776}, {"measurement": "RMC-6236: RevMed PRISM: AUC", "setting": "SNU601_STOMACH, KRAS p.G12D", "result": 0.4515}, {"measurement": "RMC-6236: RevMed PRISM: AUC", "setting": "SNU1076_UPPER_AERODIGESTIVE_TRACT", "result": 0.4839}, {"measurement": "RMC-6236: RevMed PRISM: AUC", "setting": "SNU1079_BILIARY_TRACT", "result": 0.8678}, {"measurement": "RMC-6236: RevMed PRISM: AUC", "setting": "SR786_HAEMATOPOIETIC_AND_LYMPHOID_TISSUE", "result": 0.7042}, {"measurement": "RMC-6236: RevMed PRISM: AUC", "setting": "SUDHL4_HAEMATOPOIETIC_AND_LYMPHOID_TISSUE", "result": 0.8448}, {"measurement": "RMC-6236: RevMed PRISM: AUC", "setting": "SUDHL8_HAEMATOPOIETIC_AND_LYMPHOID_TISSUE", "result": 1}, {"measurement": "RMC-6236: RevMed PRISM: AUC", "setting": "SUIT2_PANCREAS, KRAS p.G12D", "result": 0.6849}, {"measurement": "RMC-6236: RevMed PRISM: AUC", "setting": "SW626_LARGE_INTESTINE, KRAS p.G12V", "result": 0.3255}, {"measurement": "RMC-6236: RevMed PRISM: AUC", "setting": "SW1271_LUNG, NRAS p.Q61R", "result": 0.6986}, {"measurement": "RMC-6236: RevMed PRISM: AUC", "setting": "TC106_BONE", "result": 0.7285}, {"measurement": "RMC-6236: RevMed PRISM: AUC", "setting": "TE8_OESOPHAGUS", "result": 0.7048}, {"measurement": "RMC-6236: RevMed PRISM: AUC", "setting": "TT_THYROID", "result": 1}, {"measurement": "RMC-6236: RevMed PRISM: AUC", "setting": "U2973_HAEMATOPOIETIC_AND_LYMPHOID_TISSUE", "result": 1}, {"measurement": "RMC-6236: RevMed PRISM: AUC", "setting": "UMUC6_URINARY_TRACT", "result": 0.4621}, {"measurement": "RMC-6236: RevMed PRISM: AUC", "setting": "UMUC10_URINARY_TRACT", "result": 0.7756}, {"measurement": "RMC-6236: RevMed PRISM: AUC", "setting": "UMUC11_URINARY_TRACT", "result": 0.952}, {"measurement": "RMC-6236: RevMed PRISM: AUC", "setting": "VAL_HAEMATOPOIETIC_AND_LYMPHOID_TISSUE", "result": 0.8667}, {"measurement": "RMC-6236: RevMed PRISM: AUC", "setting": "YD10B_UPPER_AERODIGESTIVE_TRACT", "result": 0.5303}, {"measurement": "RMC-6236: RevMed PRISM: AUC", "setting": "YD38_UPPER_AERODIGESTIVE_TRACT", "result": 0.4476}, {"measurement": "RMC-6236: RevMed PRISM: AUC", "setting": "[…]02ER_ENDOMETRIUM", "result": 0.8144}, {"measurement": "Median AUC (PRISM)", "setting": "mutant copy number gained KRAS", "result": 0.54}, {"measurement": "Median AUC (PRISM)", "setting": "wild-type KRAS cell lines", "result": 0.78}, {"measurement": "Median AUC (PRISM)", "setting": "wild-type copy number gained KRAS", "result": 0.84}]}]}
